Results: US12723063B2, “GIPR-agonist compounds” (Eli Lilly and Company, priority 2019, dated 2026)
*1 amine or outer side, *2 acyl side, *3 side chain or, on linkers, in order; H or OH if unused. Where a SMILES comes first, the peptide text is derived from it. Side-chain parts run from the residue outwards. [ ]: non-standard residue; d: D form. The star is where a group is joined. C20 diacid = O=C(O)CCCCCCCCCCCCCCCCCCC(=O)*; C18 diacid = O=C(O)CCCCCCCCCCCCCCCCC(=O)*; αMePhe(2-F) = C[C@](N)(Cc1ccccc1F)C(=O)O; γGlu = O=C(O)[C@H](CCC(=O)[*:2])N[*:1]; 4Pal = N[C@@H](Cc1ccncc1)C(=O)O; αMeL = CC(C)C[C@](C)(N)C(=O)O; Iva = CC[C@](C)(N)C(=O)O; Orn = NCCC[C@H](N)C(=O)O; AEEA = NCCOCCOCC(=O)O; Aib = CC(C)(N)C(=O)O

Assays:
Test in all cases: cAMP functional assay (HTRF) in HEK293 cells in presence of 0.1% casein
Assay type in all cases: cell-based
[1] = biological target: T1, human glucose-dependent insulinotropic peptide receptor (GIPR) (Homo sapiens, UniProt P48546); conditions: HEK293 cells expressing human GIPR, geometric mean, read-out: hGIPR cAMP Rel EC50 nM (SEM, n)
T1 construct: expressed in transfected cells; host or cells: HEK293
T1 sequence (P48546 22-466): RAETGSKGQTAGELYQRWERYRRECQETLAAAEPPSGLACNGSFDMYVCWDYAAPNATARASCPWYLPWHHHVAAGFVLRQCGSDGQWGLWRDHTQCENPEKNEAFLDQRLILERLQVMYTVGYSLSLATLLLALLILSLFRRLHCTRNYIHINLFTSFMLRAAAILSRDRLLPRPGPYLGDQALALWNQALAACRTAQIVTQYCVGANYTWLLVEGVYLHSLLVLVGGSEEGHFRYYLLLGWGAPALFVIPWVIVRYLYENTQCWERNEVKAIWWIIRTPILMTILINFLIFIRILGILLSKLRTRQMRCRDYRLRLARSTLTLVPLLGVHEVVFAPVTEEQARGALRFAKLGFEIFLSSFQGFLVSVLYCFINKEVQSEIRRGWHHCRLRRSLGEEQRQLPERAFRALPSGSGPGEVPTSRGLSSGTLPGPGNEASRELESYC

[2] = biological target: T2, human GLP-1 receptor (GLP-1R) (Homo sapiens, UniProt P43220); conditions: HEK293 cells expressing human GLP-1R, geometric mean, read-out: hGLP1R cAMP Rel EC50 nM (SEM, n)
T2 construct: expressed in transfected cells; host or cells: HEK293

[3] = biological target: T3, human glucagon receptor (GcgR) (Homo sapiens, UniProt P47871); conditions: HEK293 cells expressing human GcgR, geometric mean, read-out: hGcgR cAMP Rel EC50 nM (SEM, n)
T3 construct: expressed in transfected cells; host or cells: HEK293
T3 sequence (P47871 26-477): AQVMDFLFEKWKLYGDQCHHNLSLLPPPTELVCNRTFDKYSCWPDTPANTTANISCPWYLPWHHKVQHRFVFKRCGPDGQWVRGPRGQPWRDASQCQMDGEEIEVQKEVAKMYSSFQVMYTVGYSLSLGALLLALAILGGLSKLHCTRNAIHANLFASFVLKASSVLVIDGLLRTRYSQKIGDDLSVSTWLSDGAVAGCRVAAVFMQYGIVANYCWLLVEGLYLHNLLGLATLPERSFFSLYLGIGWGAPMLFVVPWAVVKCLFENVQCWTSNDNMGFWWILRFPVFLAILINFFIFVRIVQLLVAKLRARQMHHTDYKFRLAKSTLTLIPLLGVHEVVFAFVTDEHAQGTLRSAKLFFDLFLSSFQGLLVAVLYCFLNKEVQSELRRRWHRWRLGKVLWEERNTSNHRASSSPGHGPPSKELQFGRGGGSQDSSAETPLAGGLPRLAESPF

T2 sequence (P43220 24-463): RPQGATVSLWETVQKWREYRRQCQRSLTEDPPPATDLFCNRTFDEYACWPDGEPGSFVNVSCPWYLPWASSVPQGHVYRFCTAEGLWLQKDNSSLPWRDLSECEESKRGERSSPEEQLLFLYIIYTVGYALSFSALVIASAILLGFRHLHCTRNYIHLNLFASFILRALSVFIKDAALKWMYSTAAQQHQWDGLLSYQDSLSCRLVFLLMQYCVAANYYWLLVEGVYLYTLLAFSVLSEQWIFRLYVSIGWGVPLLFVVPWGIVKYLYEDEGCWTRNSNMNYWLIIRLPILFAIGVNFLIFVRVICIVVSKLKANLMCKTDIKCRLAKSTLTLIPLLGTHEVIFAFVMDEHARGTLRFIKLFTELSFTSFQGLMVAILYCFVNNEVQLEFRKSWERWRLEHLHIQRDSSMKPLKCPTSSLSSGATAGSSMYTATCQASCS

Row | Compound | EC50 [1] | EC50 [2] | EC50 [3]
1 | CC[C@H](C)[C@H](NC(=O)[C@H](CO)NC(=O)[C@H](Cc1ccc(O)cc1)NC(=O)[C@H](CC(=O)O)NC(=O)[C@H](CO)NC(=O)[C@@H](NC(=O)[C@](C)(CC)NC(=O)[C@@H](NC(=O)CNC(=O)[C@H](CCC(=O)O)NC(=O)C(C)(C)NC(=O)[C@@H](N)Cc1ccc(O)cc1)[C@@H](C)O)[C@@H](C)CC)C(=O)N[C@@](C)(CC(C)C)C(=O)N[C@@H](CC(C)C)C(=O)N[C@@H](CC(=O)O)C(=O)N[C@@H](CCCN)C(=O)N[C@@H](CCCCNC(=O)COCCOCCNC(=O)COCCOCCNC(=O)CC[C@H](NC(=O)CCCCCCCCCCCCCCCCCCC(=O)O)C(=O)O)C(=O)N[C@@H](Cc1c[nH]cn1)C(=O)N[C@@H](CCC(N)=O)C(=O)NC(C)(C)C(=O)N[C@@H](CC(=O)O)C(=O)N[C@@H](Cc1ccccc1)C(=O)N[C@H](C(=O)N[C@@H](CCC(=O)O)C(=O)N[C@@H](Cc1ccncc1)C(=O)N[C@@H](CC(C)C)C(=O)N[C@@H](CC(C)C)C(=O)N[C@@H](CCC(=O)O)C(=O)N[C@H](C(=O)NCC(=O)N1CCC[C@H]1C(=O)N[C@@H](CO)C(=O)N[C@@H](CO)C(=O)NCC(=O)N[C@@H](C)C(=O)N1CCC[C@H]1C(=O)N1CCC[C@H]1C(=O)N1CCC[C@H]1C(=O)N[C@@H](CO)C(N)=O)[C@@H](C)O)C(C)C [Example 77] (H-Y[Aib]EGT[Iva]ISDYSI[αMeL]LD[Orn]K([AEEA-AEEA-γGlu-C20 diacid])HQ[Aib]DFVE[4Pal]LLETGPSSGAPPPS-NH2) | 0.0265 nM | > 5000 nM | 2660 nM
2 | CC[C@H](C)[C@H](NC(=O)[C@H](CO)NC(=O)[C@H](Cc1ccc(O)cc1)NC(=O)[C@H](CC(=O)O)NC(=O)[C@H](CO)NC(=O)[C@@H](NC(=O)[C@](C)(Cc1ccccc1F)NC(=O)[C@@H](NC(=O)CNC(=O)[C@H](CCC(=O)O)NC(=O)C(C)(C)NC(=O)[C@@H](N)Cc1ccc(O)cc1)[C@@H](C)O)[C@@H](C)CC)C(=O)N[C@@H](C)C(=O)N[C@@H](CC(C)C)C(=O)N[C@@H](CC(=O)O)C(=O)N[C@@H](CCCCN)C(=O)N[C@H](C(=O)N[C@@H](Cc1c[nH]cn1)C(=O)N[C@@H](CCC(N)=O)C(=O)NC(C)(C)C(=O)N[C@@H](CC(=O)O)C(=O)N[C@@H](Cc1ccccc1)C(=O)N[C@H](C(=O)N[C@@H](CCC(=O)O)C(=O)N[C@@H](Cc1ccncc1)C(=O)N[C@@H](CCCCNC(=O)COCCOCCNC(=O)COCCOCCNC(=O)CC[C@H](NC(=O)CCCCCCCCCCCCCCCCCCC(=O)O)C(=O)O)C(=O)N[C@@H](CC(C)C)C(=O)N[C@@H](CCC(=O)O)C(=O)N[C@@H](CCC(N)=O)C(=O)NCC(=O)N1CCC[C@H]1C(=O)N[C@@H](CO)C(=O)N[C@@H](CO)C(=O)NCC(=O)N[C@@H](C)C(=O)N1CCC[C@H]1C(=O)N1CCC[C@H]1C(=O)N1CCC[C@H]1C(=O)N[C@@H](CO)C(N)=O)C(C)C)[C@@H](C)CC [Example 114] (H-Y[Aib]EGT[αMePhe(2-F)]ISDYSIALDKIHQ[Aib]DFVE[4Pal]K([AEEA-AEEA-γGlu-C20 diacid])LEQGPSSGAPPPS-NH2) | 0.0075 nM | > 5000 nM | > 5000 nM
3 | CC[C@H](C)[C@H](NC(=O)[C@H](CCCN)NC(=O)[C@H](CC(=O)O)NC(=O)[C@H](CC(C)C)NC(=O)[C@](C)(CC(C)C)NC(=O)[C@@H](NC(=O)[C@H](CO)NC(=O)[C@H](Cc1ccc(O)cc1)NC(=O)[C@H](CC(=O)O)NC(=O)[C@H](CO)NC(=O)[C@@H](NC(=O)[C@H](Cc1ccccc1)NC(=O)[C@@H](NC(=O)CNC(=O)[C@H](CCC(=O)O)NC(=O)C(C)(C)NC(=O)[C@@H](N)Cc1ccc(O)cc1)[C@@H](C)O)[C@@H](C)CC)[C@@H](C)CC)C(=O)N[C@@H](Cc1c[nH]cn1)C(=O)N[C@@H](CCC(N)=O)C(=O)NC(C)(C)C(=O)N[C@@H](CC(=O)O)C(=O)N[C@@H](Cc1ccccc1)C(=O)N[C@H](C(=O)N[C@@H](CCC(=O)O)C(=O)N[C@@H](Cc1ccncc1)C(=O)N[C@@H](CCCCNC(=O)COCCOCCNC(=O)COCCOCCNC(=O)CC[C@H](NC(=O)CCCCCCCCCCCCCCCCC(=O)O)C(=O)O)C(=O)N[C@@H](CC(C)C)C(=O)N[C@@H](CCC(=O)O)C(=O)NCC(=O)NCC(=O)N1CCC[C@H]1C(=O)N[C@@H](CO)C(=O)N[C@@H](CO)C(=O)NCC(=O)N[C@@H](C)C(=O)N1CCC[C@H]1C(=O)N1CCC[C@H]1C(=O)N1CCC[C@H]1C(=O)N[C@@H](CO)C(N)=O)C(C)C [Example 111] (H-Y[Aib]EGTFISDYSI[αMeL]LD[Orn]IHQ[Aib]DFVE[4Pal]K([AEEA-AEEA-γGlu-C18 diacid])LEGGPSSGAPPPS-NH2) | 0.0065 nM | > 5000 nM | > 5000 nM
4 | CC[C@H](C)[C@H](NC(=O)[C@H](CO)NC(=O)[C@H](Cc1ccc(O)cc1)NC(=O)[C@H](CC(=O)O)NC(=O)[C@H](CO)NC(=O)[C@@H](NC(=O)[C@](C)(Cc1ccccc1F)NC(=O)[C@@H](NC(=O)CNC(=O)[C@H](CCC(=O)O)NC(=O)C(C)(C)NC(=O)[C@@H](N)Cc1ccc(O)cc1)[C@@H](C)O)[C@@H](C)CC)C(=O)N[C@@H](C)C(=O)N[C@@H](CC(C)C)C(=O)N[C@@H](CC(=O)O)C(=O)N[C@@H](CCCCN)C(=O)N[C@H](C(=O)N[C@@H](Cc1c[nH]cn1)C(=O)N[C@@H](CCC(N)=O)C(=O)NC(C)(C)C(=O)N[C@@H](CCC(=O)O)C(=O)N[C@@H](Cc1ccccc1)C(=O)N[C@H](C(=O)N[C@@H](CC(N)=O)C(=O)N[C@@H](Cc1ccc(O)cc1)C(=O)N[C@@H](CCCCNC(=O)COCCOCCNC(=O)COCCOCCNC(=O)CC[C@H](NC(=O)CCCCCCCCCCCCCCCCC(=O)O)C(=O)O)C(=O)N[C@@H](CC(C)C)C(=O)N[C@@H](C)C(=O)NCC(=O)NCC(=O)N1CCC[C@H]1C(=O)N[C@@H](CO)C(=O)N[C@@H](CO)C(=O)NCC(=O)N[C@@H](C)C(=O)N1CCC[C@H]1C(=O)N1CCC[C@H]1C(=O)N1CCC[C@H]1C(=O)N[C@@H](CO)C(N)=O)C(C)C)[C@@H](C)CC [Example 94] (H-Y[Aib]EGT[αMePhe(2-F)]ISDYSIALDKIHQ[Aib]EFVNYK([AEEA-AEEA-γGlu-C18 diacid])LAGGPSSGAPPPS-NH2) | 0.00436 nM | 1090 nM | > 5000 nM
5 | CC[C@H](C)[C@H](NC(=O)[C@H](CCCCN)NC(=O)[C@H](CC(=O)O)NC(=O)[C@H](CC(C)C)NC(=O)[C@](C)(CC(C)C)NC(=O)[C@@H](NC(=O)[C@H](CO)NC(=O)[C@H](Cc1ccc(O)cc1)NC(=O)[C@H](CC(=O)O)NC(=O)[C@H](CO)NC(=O)[C@@H](NC(=O)[C@H](Cc1ccccc1)NC(=O)[C@@H](NC(=O)CNC(=O)[C@H](CCC(=O)O)NC(=O)C(C)(C)NC(=O)[C@@H](N)Cc1ccc(O)cc1)[C@@H](C)O)[C@@H](C)CC)[C@@H](C)CC)C(=O)N[C@@H](Cc1c[nH]cn1)C(=O)N[C@@H](CCC(N)=O)C(=O)NC(C)(C)C(=O)N[C@@H](CCC(=O)O)C(=O)N[C@@H](Cc1ccccc1)C(=O)N[C@H](C(=O)N[C@@H](CCC(=O)O)C(=O)N[C@@H](Cc1ccncc1)C(=O)N[C@@H](CCCCNC(=O)COCCOCCNC(=O)COCCOCCNC(=O)CC[C@H](NC(=O)CCCCCCCCCCCCCCCCCCC(=O)O)C(=O)O)C(=O)N[C@@H](CC(C)C)C(=O)N[C@@H](CCC(=O)O)C(=O)NCC(=O)NCC(=O)N1CCC[C@H]1C(=O)N[C@@H](CO)C(=O)N[C@@H](CO)C(=O)NCC(=O)N[C@@H](C)C(=O)N1CCC[C@H]1C(=O)N1CCC[C@H]1C(=O)N1CCC[C@H]1C(=O)N[C@@H](CO)C(N)=O)C(C)C [Example 100] (H-Y[Aib]EGTFISDYSI[αMeL]LDKIHQ[Aib]EFVE[4Pal]K([AEEA-AEEA-γGlu-C20 diacid])LEGGPSSGAPPPS-NH2) | 0.0224 nM | > 5000 nM | > 5000 nM
6 | CC[C@H](C)[C@H](NC(=O)[C@H](CCCN)NC(=O)[C@H](CC(=O)O)NC(=O)[C@H](CC(C)C)NC(=O)[C@](C)(CC(C)C)NC(=O)[C@@H](NC(=O)[C@H](CO)NC(=O)[C@H](Cc1ccc(O)cc1)NC(=O)[C@H](CC(=O)O)NC(=O)[C@H](CO)NC(=O)[C@@H](NC(=O)[C@H](Cc1ccccc1)NC(=O)[C@@H](NC(=O)CNC(=O)[C@H](CCC(=O)O)NC(=O)C(C)(C)NC(=O)[C@@H](N)Cc1ccc(O)cc1)[C@@H](C)O)[C@@H](C)CC)[C@@H](C)CC)C(=O)N[C@@H](Cc1c[nH]cn1)C(=O)N[C@@H](CCC(N)=O)C(=O)NC(C)(C)C(=O)N[C@@H](CCC(=O)O)C(=O)N[C@@H](Cc1ccccc1)C(=O)N[C@H](C(=O)N[C@@H](CCC(=O)O)C(=O)N[C@@H](Cc1ccc(O)cc1)C(=O)N[C@@H](CCCCNC(=O)COCCOCCNC(=O)COCCOCCNC(=O)CC[C@H](NC(=O)CCCCCCCCCCCCCCCCCCC(=O)O)C(=O)O)C(=O)N[C@@H](CC(C)C)C(=O)N[C@@H](CCC(=O)O)C(=O)N[C@@H](C)C(=O)NCC(=O)N1CCC[C@H]1C(=O)N[C@@H](CO)C(=O)N[C@@H](CO)C(=O)NCC(=O)N[C@@H](C)C(=O)N1CCC[C@H]1C(=O)N1CCC[C@H]1C(=O)N1CCC[C@H]1C(=O)N[C@@H](CO)C(N)=O)C(C)C [Example 104] (H-Y[Aib]EGTFISDYSI[αMeL]LD[Orn]IHQ[Aib]EFVEYK([AEEA-AEEA-γGlu-C20 diacid])LEAGPSSGAPPPS-NH2) | 0.0165 nM | > 5000 nM | > 5000 nM
